Data on two molecules can be found in patent US20220280543A1, “DDX17 AND NLRC4 TARGETING FOR INFLAMMATORY DISEASES” (University of Virginia Patent Foundation, priority 2019, published 2022).

In series [1] the test system is NLRC4 phosphorylation (site S533). The experiment in a line: Alu RNA induced NLRC4 phosphorylation (S533) in BMDM pre-treated with kinase inhibitors, immunoblot. The series is classed as cell-based, mouse. Conditions: BMDM pre-treated 1 hour with inhibitor at 2 μM or 5 μM, then Alu RNA transfection (100 pmol). The method, then: (§1) FIG. 2. SINE RNA induced NLRC4 phosphorylation (site S533) through protein Kinase C Delta. BMDM cell pre-treated with the LRRK2 Kinase inhibitor gsk2578215a (GSK; 5-(2-Fluoro-4-pyridinyl)-2-(phenylmethoxy)-N-3-pyridinyl-benzamide; CAS Number 1285515-21-0; Sigma-Aldrich, St. Louis, Mo., United States of America) or the PKC delta inhibitor Rottlerin (CAS Number 82-08-6; Sigma-Aldrich) at 2 μM or 5 μM, and treated with Alu RNA (SEQ ID NO: 86) transfection or transfection reagent alone (Mock). NLRC4 phosphorylation (P-NLRC4) and supernatant caspase-1 activation were detected by SDS-PAGE. […] PKC delta inhibitor, Rottlerin blocked Alu RNA-induced NLRC4 phosphorylation and caspase-1 activation. The p-NLRC4 and caspase-1 (p20) bands were indicated with black arrows.
(§2) Previous studies have shown that NLRC4 inflammasome activation in response to Salmonella exposure requires two steps for its activation, phosphorylation on Ser533 residue of NLRC4 and NAIP mediated oligomerization of NLRC4. […] Moreover, treatment with SINE RNAs induced caspase-1 p20 cleavage, indicative of inflammasome activation (FIG. 2). For the subsequent experiments in this study, we used Alu RNA (SEQ ID NO: 86) as the stimulus to activate the NLRC4 inflammasome. To date, two kinases are reported to phosphorylate NLRC4 at S533: protein kinase C delta (PKCδ) and leucine rich repeat-containing kinase-2 (LRRK2). […]
(A western blot detects proteins with antibodies after separation by electrophoresis.)

The subject of series [2] is caspase-1. The experiment in a line: Alu RNA induced caspase-1 activation (p20 in supernatant) in BMDM pre-treated with kinase inhibitors. The series is classed as cell-based, mouse. The note with it: BMDM pre-treated 1 hour with inhibitor at 2 μM or 5 μM, then Alu RNA transfection (100 pmol). The method, then: as §1, §2
Series [3] concerns the molecule itself. Description: homo-oligomerization, Tris-glycine native PAGE, Alu RNA-transfected human RPE cells. From the text: FIGS. 24A and 24B. Alu RNA (SEQ ID NO: 86) induced NLRC4 activation in human RPE cells. To test whether Alu RNA (SEQ ID NO: 86) induces NLRC4 activation in human RPE, we transfected human RPE with Alu RNA (SEQ ID NO: 86 at 100 pmol). FIG. 24A. Immunofluorescence staining on NLRC4 show Alu RNA (SEQ ID NO: 86) induced cytosolic NLRC4 punctate in hRPE cells. The NLRC4 aggregates induced by Alu RNA (SEQ ID NO: 86) are indicated by white arrows. FIG. 24B. Alu RNA (SEQ ID NO: 86) induced NLRC4 (p-NLRC4) phosphorylation and oligomerization. Loading control show by Actin. NLRC4 oligomers were detected by Tris-glycine native PAGE. […] The band of NLRC4 oligomers is indicated by black arrow.

For series [4], the target named is T1, human NLR family pyrin domain containing 3 (NLRP3) (human, UniProt Q96P20 1-1036).
T1 construct: Endogenous protein of human RPE cells
The experiment in a line: proximity ligation assay (PLA) in human RPE cells transfected with biotinylated Alu RNA. The method, then: FIG. 37. Alu RNA (SEQ ID NO: 86) induces the assembly of NLRC4 and NLRP3 complex. Human RPE cells were transfected with biotinylated Alu RNA (SEQ ID NO: 86 at 100 pmol) by LIPOFECTAMINE™ 3000 brand transfection reagent (Lipo; ThermoFisher Scientific). The assembly of NLRC4 and NLRP3 complex was evaluated by Proximity Ligation Assay (PLA). […] The signal of NLRC4-NLRP3 complexes is indicated by the white arrow.
Human RPE cells were treated with biotinylated Alu RNA (SEQ ID NO: 86 at 100 pmol). The assembly of NLRC4 and NLRP3 complex was evaluated by Proximity Ligation Assay (PLA).

Entries after “also recorded” stand apart in the source; their conditions may differ.

T1 sequence (Q96P20 whole entry, the tested form may be a part): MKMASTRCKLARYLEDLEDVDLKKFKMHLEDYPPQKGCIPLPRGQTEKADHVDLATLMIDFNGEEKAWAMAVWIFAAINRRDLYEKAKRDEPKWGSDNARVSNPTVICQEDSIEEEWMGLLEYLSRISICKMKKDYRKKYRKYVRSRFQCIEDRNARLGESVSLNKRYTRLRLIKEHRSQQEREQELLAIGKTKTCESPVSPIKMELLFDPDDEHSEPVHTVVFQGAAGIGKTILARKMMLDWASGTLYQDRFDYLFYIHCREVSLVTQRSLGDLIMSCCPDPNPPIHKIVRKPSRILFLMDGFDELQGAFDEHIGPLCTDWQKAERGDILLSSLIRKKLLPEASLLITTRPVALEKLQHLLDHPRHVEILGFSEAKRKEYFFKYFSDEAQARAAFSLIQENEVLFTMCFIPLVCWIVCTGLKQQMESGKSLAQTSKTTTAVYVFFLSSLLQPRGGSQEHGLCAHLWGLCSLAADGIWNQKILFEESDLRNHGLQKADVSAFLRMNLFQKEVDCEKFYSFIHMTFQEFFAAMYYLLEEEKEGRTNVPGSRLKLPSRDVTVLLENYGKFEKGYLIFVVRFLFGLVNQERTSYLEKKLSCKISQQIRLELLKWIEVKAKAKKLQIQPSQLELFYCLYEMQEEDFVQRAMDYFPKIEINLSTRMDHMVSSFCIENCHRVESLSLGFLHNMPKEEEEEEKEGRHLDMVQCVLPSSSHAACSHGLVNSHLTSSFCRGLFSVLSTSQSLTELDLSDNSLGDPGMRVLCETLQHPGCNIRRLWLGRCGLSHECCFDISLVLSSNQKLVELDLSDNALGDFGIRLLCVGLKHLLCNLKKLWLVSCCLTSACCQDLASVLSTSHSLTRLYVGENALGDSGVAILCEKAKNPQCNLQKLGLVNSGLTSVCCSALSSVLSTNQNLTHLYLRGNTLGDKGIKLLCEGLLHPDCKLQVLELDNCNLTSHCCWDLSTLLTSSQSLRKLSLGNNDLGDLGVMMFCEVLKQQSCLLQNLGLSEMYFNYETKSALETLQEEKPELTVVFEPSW

Consider `CC(=O)c1c(O)c(C)c(O)c(Cc2c(O)c3c(c(C(=O)/C=C/c4ccccc4)c2O)OC(C)(C)C=C3)c1O` [Rottlerin], for which the “Alu RNA induced phosphorylation of NLRC4” value in series [1] is recorded as “blocked; also recorded: inhibited”. Further, the “Alu RNA induced caspase-1 activation” value in series [2] is listed as “blocked; also recorded: inhibited”.

B1: human NLR family CARD domain containing 4 (NLRC4) (receptor)
chain: MNFIKDNSRALIQRMGMTVIKQITDDLFVWNVLNREEVNIICCEKVEQDAARGIIHMILKKGSESCNLFLKSLKEWNYPLFQDLNGQSLFHQTSEGDLDDLAQDLKDLYHTPSFLNFYPLGEDIDIIFNLKSTFTEPVLWRKDQHHHRVEQLTLNGLLQALQSPCIIEGESGKGKSTLLQRIAMLWGSGKCKALTKFKFVFFLRLSRAQGGLFETLCDQLLDIPGTIRKQTFMAMLLKLRQRVLFLLDGYNEFKPQNCPEIEALIKENHRFKNMVIVTTTTECLRHIRQFGALTAEVGDMTEDSAQALIREVLIKELAEGLLLQIQKSRCLRNLMKTPLFVVITCAIQMGESEFHSHTQTTLFHTFYDLLIQKNKHKHKGVAASDFIRSLDHCGDLALEGVFSHKFDFELQDVSSVNEDVLLTTGLLCKYTAQRFKPKYKFFHKSFQEYTAGRRLSSLLTSHEPEEVTKGNGYLQKMVSISDITSTYSSLLRYTCGSSVEATRAVMKHLAAVYQHGCLLGLSIAKRPLWRQESLQSVKNTTEQEILKAININSFVECGIHLYQESTSKSALSQEFEAFFQGKSLYINSGNIPDYLFDFFEHLPNCASALDFIKLDFYGGAMASWEKAAEDTGGIHMEEAPETYIPSRAVSLFFNWKQEFRTLEVTLRDFSKLNKQDIRYLGKIFSSATSLRLQIKRCAGVAGSLSLVLSTCKNIYSLMVEASPLTIEDERHITSVTNLKTLSIHDLQNQRLPGGLTDSLGNLKNLTKLIMDNIKMNEEDAIKLAEGLKNLKKMCLFHLTHLSDIGEGMDYIVKSLSSEPCDLEEIQLVSCCLSANAVKILAQNLHNLVKLSILDLSENYLEKDGNEALHELIDRMNVLEQLTALMLPWGCDVQGSLSSLLKHLEEVPQLVKLGLKNWRLTDTEIRILGAFFGKNPLKNFQQLNLAGNRVSSDGWLAFMGVFENLKQLVFFDFSTKEFLPDPALVRKLSQVLSKLTFLQEARLVGWQFDDDDLSVITGAFKLVTA
notes: Endogenous protein of human RPE cells and of human donor eyes
Take B1: the binding result in series [3] and in series [4] was “binds” in each case.
